From patent US20070160725A1, “Use of extracts and compounds of allium-genus plants as preservatives in the food and agri-food industries” (MOUSALA, S., L., priority 2004, published 2007) come the findings set out here.

Bounds are passed on as bounds.

Assay [1] has as its system Coliforms. As to the kind of experiment: microbiological quality of treated hamburgers and fresh sausage: coliform count (MPN). The method, then: (§1) The tests were conducted on meat products such as hamburgers and fresh sausage at different doses, with and without the usual preservatives (sulfites).
(§2) Each sample is prepared in quintuplicate and microbiological quality control over time is conducted, a triplicate of each sample being performed.
The method used to detect lactose-positive enterobacteria (coliforms) is based on its capacity to ferment lactose with the production of acid and gas in the presence of bile salts.
To that end a count was performed in liquid medium to determine a MPN on Brilliant Green Bile Lactose Broth (Merck Brila Broth).
Said Brilliant Broth is prepared in a test tube rack with 3 series of three tubes for each one of the samples to be analyzed. Each tube contains 10 ml of Brila Broth and 1 Durham tube.
1 mL of the dilution of the sample at 1:10 or (−1) is poured into each one of the tubes of the first series.
1 mL of the dilution of the sample at 1:100 or (−2) is poured into each one of the tubes of the second series.
1 mL of the dilution of the sample at 1:1000 or (−3) is poured into each one of the tubes of the third series.
The three series are incubated at 31±1° C., taking a reading at 24 and 48 hours.
The reaction is positive when gas discharge occurs inside the Durham tube, at least in 1/10 of its volume.
The Most Probable Number (MPN) table is used with the number of positive tubes in each series, and the data is extrapolated.
The result is finally expressed as the coliform count per gram of sample.
(§3) Two different raw meat products (sausages and hamburgers) treated with different allicin doses are prepared. • The used testing doses were: 25, 50 and 100 ppm.
(§4) Five samples of each product (hamburger and sausage) are prepared, each one of them being analyzed in triplicate.
(§5) The microbiological parameters analyzed were as follows: • Total mesophilic aerobes • Coliforms • Escherichia coli • Salmonella (presence/absence in 25 g) • Said parameters were analyzed at different times: • 0 days • 4 days • 7 days • The sample references resulted as follows: […]

Assay [2] concerns Escherichia coli. The assay can be described thus: microbiological quality of treated hamburgers and fresh sausage: Escherichia coli count. The method, then: as §1, §2
The positive Brila Broth tubes obtained in the coliform study are used according to the following protocol:
All the tubes having gas production are subcultured again with an inoculation loop in tubes containing 10 mL of Brila Broth (with a Durham tube), being incubated at 44.5° C. for 24-48 hours.
Once the incubation has elapsed the existence of Escherichia coli is assumed in any tube with growth and with gas formation under the previously discussed conditions.
Eosine Methylene Blue (Merck EMB) was used as a selective confirmation medium, isolating on dishes containing EMB from all the positive tubes. The occurrence of colonies measuring 2-3 mm in diameter (planar or slightly concave), with dark almost black centers occupying ¾ of the colony which, with reflected light, sometimes show a greenish metallic glow, which are most likely Escherichia coli, the confirmation of which is done by means of the indole biochemistry test.
When positive growth (gas) in Brila Broth at 44.5° C., indole production and characteristic growth on EMB agar coincide, the reading is done in the MPN table and the data is extrapolated.
The result is expressed as the number of
Escherichia coli per gram of sample.
as §3, §4, §5

Setting [3] is: hamburger, 25 ppm of allicin (H-1), t = 0 days.
Setting [4] is: hamburger, 25 ppm of allicin (H-1), t = 4 days.
Setting [5] is: hamburger, 50 ppm of allicin (H-2), t = 0 days.
[6] abbreviates: hamburger, 50 ppm of allicin (H-2), t = 4 days.
Where [7] appears, read: hamburger, 100 ppm of allicin (H-3), t = 0 days.
The mark [8] stands for this setting: hamburger, 100 ppm of allicin (H-3), t = 4 days.
Setting [9] is: sausage, 25 ppm of allicin (S-1), t = 0 days.
[10] abbreviates: sausage, 25 ppm of allicin (S-1), t = 4 days.
[11] abbreviates: sausage, 50 ppm of allicin (S-2), t = 0 days.
The mark [12] stands for this setting: sausage, 50 ppm of allicin (S-2), t = 4 days.
Setting [13] is: sausage, 100 ppm of allicin (S-3), t = 0 days.
The mark [14] stands for this setting: sausage, 100 ppm of allicin (S-3), t = 4 days.

As for `C=CCS[S+]([O-])CC=C` (stereo not drawn) [Allicin, allyl allylthiosulfinate], the Coliforms in assay [1] (setting [3]) is on record as 150 cfu/g; in assay [1] (setting [4]), >2400 cfu/g; in assay [1] (setting [5]), 150 cfu/g; in assay [1] (setting [6]), 1100 cfu/g; in assay [1] (setting [7]), 150 cfu/g; in assay [1] (setting [8]), 150 cfu/g. In addition, the Coliforms is 3 cfu/g in assay [1] (setting [9]); 21 cfu/g in assay [1] (setting [10]); <3 cfu/g in assay [1] (setting [11]); 7 cfu/g in assay [1] (setting [12]); <3 cfu/g in assay [1] (setting [13]); <3 cfu/g in assay [1] (setting [14]). For the same compound, the Escherichia coli in assay [2] (setting [3]) came out at 23 cfu/g; in assay [2] (setting [4]), 150 cfu/g; in assay [2] (setting [5]) it was 23 cfu/g; in assay [2] (setting [6]), 150 cfu/g; in assay [2] (setting [7]), 23 cfu/g; in assay [2] (setting [8]), 43 cfu/g. The Escherichia coli in assay [2] (setting [9]) is recorded as <3 cfu/g; in assay [2] (setting [10]), 4 cfu/g; in assay [2] (setting [11]), <3 cfu/g; in assay [2] (setting [12]) it was 4 cfu/g; in assay [2] (setting [13]), <3 cfu/g; in assay [2] (setting [14]) it was <3 cfu/g.
